The source of these data is ChEMBL document CHEMBL1142326, “2-Amino-N-pyrimidin-4-ylacetamides as A2A receptor antagonists: 1. Structure-activity relationships and optimization of heterocyclic substituents” (J Med Chem, 2008).

The structures appear in SMILES notation.

The target of one test is T1, Adenosine receptor A1 (Homo sapiens, UniProt P30542).
T1 sequence (P30542 whole entry): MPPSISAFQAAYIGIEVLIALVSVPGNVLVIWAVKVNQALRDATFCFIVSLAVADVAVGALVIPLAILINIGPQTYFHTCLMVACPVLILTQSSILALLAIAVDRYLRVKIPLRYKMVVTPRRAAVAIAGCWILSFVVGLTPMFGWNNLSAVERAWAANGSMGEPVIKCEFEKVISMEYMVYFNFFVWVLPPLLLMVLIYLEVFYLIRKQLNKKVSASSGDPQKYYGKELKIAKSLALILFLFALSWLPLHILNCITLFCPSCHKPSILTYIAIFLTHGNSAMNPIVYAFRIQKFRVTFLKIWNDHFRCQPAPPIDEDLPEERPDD
Put plainly: Displacement of [3H]DPCPX from human adenosine A1 receptor expressed in HEK293 cells. Type of test: cell-based.

The target of test [1] is T2, Adenosine receptor A2a (Homo sapiens, UniProt P29274). Put plainly: Displacement of [3H]ZM241385 from human adenosine A2A receptor expressed in HEK293 cells. Format: cell-based.
T2 sequence (P29274 whole entry): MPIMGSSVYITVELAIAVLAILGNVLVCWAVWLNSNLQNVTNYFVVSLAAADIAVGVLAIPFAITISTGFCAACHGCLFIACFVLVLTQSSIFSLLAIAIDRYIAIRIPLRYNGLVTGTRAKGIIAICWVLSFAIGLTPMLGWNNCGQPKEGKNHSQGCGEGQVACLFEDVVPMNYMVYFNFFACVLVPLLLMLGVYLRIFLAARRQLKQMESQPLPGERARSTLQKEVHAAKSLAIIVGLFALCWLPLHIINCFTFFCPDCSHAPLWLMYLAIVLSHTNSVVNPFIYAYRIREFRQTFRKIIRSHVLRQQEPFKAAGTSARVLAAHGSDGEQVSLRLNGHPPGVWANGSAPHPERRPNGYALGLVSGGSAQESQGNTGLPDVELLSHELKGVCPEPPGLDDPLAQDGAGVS
A further test has as its target Cytochrome P450 3A4 (Homo sapiens, UniProt P08684). Put plainly: Inhibition of CYP3A4. Format: ADME.
The target of test [2] is T2, Adenosine receptor A2a. Put plainly: Antagonist activity at human adenosine A2A receptor by cAMP assay. Format: functional.

Sequence of Cytochrome P450 3A4 (P08684 whole entry): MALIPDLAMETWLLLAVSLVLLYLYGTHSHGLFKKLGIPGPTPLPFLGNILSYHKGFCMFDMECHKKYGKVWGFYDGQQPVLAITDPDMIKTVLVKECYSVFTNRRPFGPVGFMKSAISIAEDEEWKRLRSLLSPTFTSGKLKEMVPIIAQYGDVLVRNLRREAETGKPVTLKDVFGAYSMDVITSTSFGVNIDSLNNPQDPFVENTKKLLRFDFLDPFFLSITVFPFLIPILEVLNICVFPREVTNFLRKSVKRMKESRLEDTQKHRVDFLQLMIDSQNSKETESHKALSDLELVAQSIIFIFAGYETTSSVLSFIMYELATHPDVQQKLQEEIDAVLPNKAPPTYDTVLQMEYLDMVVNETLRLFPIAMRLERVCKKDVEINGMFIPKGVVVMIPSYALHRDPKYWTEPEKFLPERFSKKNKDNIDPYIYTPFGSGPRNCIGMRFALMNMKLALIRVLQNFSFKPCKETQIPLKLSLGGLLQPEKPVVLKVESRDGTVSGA

As to `CN1CCN(CC(=O)Nc2cc(-c3ccccn3)nc(-c3cccs3)n2)CC1`, the Ki stood at 389 nM on Adenosine receptor A1 and 24 nM on Adenosine receptor A2a [1].
For `Cc1cc(C)n(-c2cc(NC(=O)CN3CCN(C)CC3)nc(-c3ccc(C)o3)n2)n1` the same measures were 850 nM and 12 nM.
In the same order, the values of `CN1CCN(CC(=O)Nc2cc(-n3cccn3)nc(-n3cccn3)n2)CC1` are 4200 nM and 131 nM.
As to `Cc1cc(C)n(-c2nc(NC(=O)CN3CCN(C)CC3)cc(-c3nccs3)n2)n1`, the Ki on Adenosine receptor A1 was found to be 1700 nM; on Adenosine receptor A2a [1], 27 nM.
As for `Cc1cc(C)n(-c2cc(NC(=O)CN3CCN(C)CC3)nc(-c3nccs3)n2)n1`, the Ki at Adenosine receptor A1 is 2000 nM; at Adenosine receptor A2a [1], 9 nM. On Cytochrome P450 3A4, 13000 nM corresponded to half-maximal inhibition (IC50).
On to `CN1CCN(CC(=O)Nc2cc(-n3cccn3)nc(-c3nccs3)n2)CC1`, for which the results for the Ki at Adenosine receptor A1 and at Adenosine receptor A2a [1] were 850 nM and 17 nM, respectively.
In the same order, the values of `Cc1ccc(-c2nc(NC(=O)CN3CCN(C)CC3)cc(-c3nccs3)n2)o1` are 720 nM and 51 nM.
For `Cc1ccc(-c2nc(NC(=O)CN3CCN(C)CC3)cc(-n3nccc3C)n2)o1` the same measures were 390 nM and 14 nM.
With `Cc1cc(C)n(-c2nc(NC(=O)CN3CCN(C)CC3)cc(-c3ocnc3C)n2)n1`, the Ki is > 10000 nM on Adenosine receptor A1 and 190 nM at Adenosine receptor A2a [1].
On Adenosine receptor A2a [2], `CN1CCN(CC(=O)Nc2cc(-c3nccs3)nc(-c3ccco3)n2)CC1` registered a concentration for half-maximal inhibition (IC50) of 103 nM.
As to `Cc1cc(C)n(-c2nc(NC(=O)CN3CCN(C)CC3)cc(-c3cnco3)n2)n1`, the Ki at Adenosine receptor A1 was > 10000 nM; on Adenosine receptor A2a [1], 1000 nM.
For `Cc1ccc(-c2nc(NC(=O)CN3CCN(C)CC3)cc(-n3cccn3)n2)o1` the same measures were 850 nM and 135 nM.
For `Cc1cc(C)n(-c2cc(NC(=O)CN3CCN(C)CC3)nc(-c3ccccn3)n2)n1`, the Ki on Adenosine receptor A1 came to 4400 nM; at Adenosine receptor A2a [1] it was 25.5 nM.
In the same order, the values of `CN1CCN(CC(=O)Nc2cc(-n3cccn3)nc(-c3ccccn3)n2)CC1` are 930 nM and 53.4 nM.
